From US11083725B2 (priority 2014, dated 2021)

System: NHBE cells
Test: Biolog metabolic array: substrate use by NHBE cells with or without CA09 infection
Format: cell-based, human
Settings: for Substrate use, 590 nm absorbance normalized to zero hour, 0 hr: Biolog PMM2, 0 hr; for Substrate use, 590 nm absorbance normalized to zero hour, 1 hr: Biolog PMM2, 1 hr; for Substrate use, 590 nm absorbance normalized to zero hour, 5 hr: Biolog PMM2, 5 hr; for Substrate use, 590 nm absorbance normalized to zero hour, 7 hr: Biolog PMM2, 7 hr
[1] = Control (uninfected) NHBE cells
[2] = Virus (CA09-infected, MOI 1) NHBE cells
[3] = Virus: CA09-infected NHBE cells, MOI 1, Biolog PMM2
[4] = Virus (CA09, MOI 1) infected NHBE cells

| SMILES | 590 nm absorbance normalized to zero hour (substrate use), 0 hr [1] | 590 nm absorbance normalized to zero hour (substrate use), 1 hr [1] | 590 nm absorbance normalized to zero hour (substrate use), 3 hr [1] | 590 nm absorbance normalized to zero hour (substrate use), 4 hr [1] | 590 nm absorbance normalized to zero hour (substrate use), 6 hr [1] | 590 nm absorbance normalized to zero hour (substrate use), 8 hr [1] | 590 nm absorbance normalized to zero hour (substrate use), 9 hr [1] | 590 nm absorbance normalized to zero hour (substrate use), 10 hr [1] | 590 nm absorbance normalized to zero hour (substrate use), 11 hr [1] | Substrate use, 590 nm absorbance normalized to zero hour, 0 hr [1] | Substrate use, 590 nm absorbance normalized to zero hour, 1 hr [1] | Substrate use, 590 nm absorbance normalized to zero hour, 5 hr [1] | Substrate use, 590 nm absorbance normalized to zero hour, 7 hr [1] | 590 nm absorbance normalized to zero hour (substrate use), 0 hr [2] | 590 nm absorbance normalized to zero hour (substrate use), 1 hr [2] | 590 nm absorbance normalized to zero hour (substrate use), 2 hr [2] | 590 nm absorbance normalized to zero hour (substrate use), 3 hr [2] | 590 nm absorbance normalized to zero hour (substrate use), 4 hr [2] | 590 nm absorbance normalized to zero hour (substrate use), 6 hr [2] | 590 nm absorbance normalized to zero hour (substrate use), 8 hr [2] | other results |
| --- | --- | --- | --- | --- | --- | --- | --- | --- | --- | --- | --- | --- | --- | --- | --- | --- | --- | --- | --- | --- | --- |
| CO[C@@H]1O[C@H](CO)[C@H](O)[C@H](O)[C@H]1O [b-Methyl-D-Galactoside] | 1.00 | 0.52 | 0.78 | 0.87 | 1.28 | 1.24 | 1.36 | 1.54 | 1.61 | 1.00 | 0.52 | 1.05 | 1.17 | 1.00 | 0.74 | 0.95 | 1.11 | 1.18 | 1.45 | 1.60 | 590 nm absorbance normalized to zero hour (substrate use), 2 hr [1]: 0.68; 590 nm absorbance normalized to zero hour (substrate use), 5 hr [2]: 1.36; 590 nm absorbance normalized to zero hour (substrate use), 7 hr [2]: 1.52; 590 nm absorbance normalized to zero hour (substrate use), 9 hr [2]: 1.76; 590 nm absorbance normalized to zero hour (substrate use), 10 hr [2]: 1.81; 590 nm absorbance normalized to zero hour (substrate use), 11 hr [2]: 1.96; 590 nm absorbance normalized to zero hour (substrate use), 0 hr [3]: 1.00; 590 nm absorbance normalized to zero hour (substrate use), 1 hr [3]: 0.74; 590 nm absorbance normalized to zero hour (substrate use), 2 hr [3]: 0.95; 590 nm absorbance normalized to zero hour (substrate use), 3 hr [3]: 1.11; 590 nm absorbance normalized to zero hour (substrate use), 4 hr [3]: 1.18; 590 nm absorbance normalized to zero hour (substrate use), 5 hr [3]: 1.36; 590 nm absorbance normalized to zero hour (substrate use), 6 hr [3]: 1.45; 590 nm absorbance normalized to zero hour (substrate use), 7 hr [3]: 1.52; 590 nm absorbance normalized to zero hour (substrate use), 8 hr [3]: 1.60; 590 nm absorbance normalized to zero hour (substrate use), 9 hr [3]: 1.76; 590 nm absorbance normalized to zero hour (substrate use), 10 hr [3]: 1.81; 590 nm absorbance normalized to zero hour (substrate use), 11 hr [3]: 1.96 |
| CO[C@@H]1O[C@H](CO)[C@@H](O)[C@H](O)[C@H]1O [b-Methyl-D-Glucoside] | 1.00 | 1.32 | 1.84 | 2.02 | 1.04 | 3.05 | 3.33 | 3.70 | 4.24 | 1.00 | 1.32 | 2.32 | 2.85 | 1.00 | 2.00 | 2.80 | 3.24 | 3.45 | 4.32 | 4.86 | 590 nm absorbance normalized to zero hour (substrate use), 2 hr [1]: 1.80; Substrate use, 590 nm absorbance normalized to zero hour, 0 hr [4]: 1.00; Substrate use, 590 nm absorbance normalized to zero hour, 1 hr [4]: 2.00; Substrate use, 590 nm absorbance normalized to zero hour, 5 hr [4]: 3.99; Substrate use, 590 nm absorbance normalized to zero hour, 7 hr [4]: 4.57; 590 nm absorbance normalized to zero hour (substrate use), 9 hr [2]: 5.41; 590 nm absorbance normalized to zero hour (substrate use), 10 hr [2]: 5.67; 590 nm absorbance normalized to zero hour (substrate use), 11 hr [2]: 6.22 |
| CO[C@@H]1OC[C@@H](O)[C@H](O)[C@H]1O [b-Methyl-D-Xyloside] | 1.00 | 1.53 | 1.59 | 1.73 | 1.14 | 4.02 | 2.33 | 2.61 | 3.03 | 1.00 | 1.53 | 2.08 | 4.46 | 1.00 | 1.92 | 2.38 | 2.79 | 2.82 | 3.28 | 3.52 | 590 nm absorbance normalized to zero hour (substrate use), 2 hr [1]: 6.40; 590 nm absorbance normalized to zero hour (substrate use), 5 hr [2]: 3.12; 590 nm absorbance normalized to zero hour (substrate use), 7 hr [2]: 3.39; 590 nm absorbance normalized to zero hour (substrate use), 9 hr [2]: 3.77; 590 nm absorbance normalized to zero hour (substrate use), 10 hr [2]: 3.87; 590 nm absorbance normalized to zero hour (substrate use), 11 hr [2]: 4.01; 590 nm absorbance normalized to zero hour (substrate use), 0 hr [3]: 1.00; 590 nm absorbance normalized to zero hour (substrate use), 1 hr [3]: 1.92; 590 nm absorbance normalized to zero hour (substrate use), 2 hr [3]: 2.38; 590 nm absorbance normalized to zero hour (substrate use), 3 hr [3]: 2.79; 590 nm absorbance normalized to zero hour (substrate use), 4 hr [3]: 2.82; 590 nm absorbance normalized to zero hour (substrate use), 5 hr [3]: 3.12; 590 nm absorbance normalized to zero hour (substrate use), 6 hr [3]: 3.28; 590 nm absorbance normalized to zero hour (substrate use), 7 hr [3]: 3.39; 590 nm absorbance normalized to zero hour (substrate use), 8 hr [3]: 3.52; 590 nm absorbance normalized to zero hour (substrate use), 9 hr [3]: 3.77; 590 nm absorbance normalized to zero hour (substrate use), 10 hr [3]: 3.87; 590 nm absorbance normalized to zero hour (substrate use), 11 hr [3]: 4.01 |
| NCCCC(=O)O [g-Amino Butyric Acid] | 1.00 | 1.25 | 1.42 | 1.47 | 3.94 | 1.09 | 2.20 | 1.13 | 2.55 | 1.00 | 1.25 | 1.52 | 1.05 | 1.00 | 1.68 | 2.39 | 2.83 | 2.96 | 3.56 | 3.84 | 590 nm absorbance normalized to zero hour (substrate use), 5 hr [2]: 3.40; 590 nm absorbance normalized to zero hour (substrate use), 7 hr [2]: 3.70; 590 nm absorbance normalized to zero hour (substrate use), 9 hr [2]: 3.99; 590 nm absorbance normalized to zero hour (substrate use), 10 hr [2]: 3.94; 590 nm absorbance normalized to zero hour (substrate use), 11 hr [2]: 3.74; 590 nm absorbance normalized to zero hour (substrate use), 0 hr [3]: 1.00; 590 nm absorbance normalized to zero hour (substrate use), 1 hr [3]: 1.68; 590 nm absorbance normalized to zero hour (substrate use), 2 hr [3]: 2.39; 590 nm absorbance normalized to zero hour (substrate use), 3 hr [3]: 2.83; 590 nm absorbance normalized to zero hour (substrate use), 4 hr [3]: 2.96; 590 nm absorbance normalized to zero hour (substrate use), 5 hr [3]: 3.40; 590 nm absorbance normalized to zero hour (substrate use), 6 hr [3]: 3.56; 590 nm absorbance normalized to zero hour (substrate use), 7 hr [3]: 3.70; 590 nm absorbance normalized to zero hour (substrate use), 8 hr [3]: 3.84; 590 nm absorbance normalized to zero hour (substrate use), 9 hr [3]: 3.99; 590 nm absorbance normalized to zero hour (substrate use), 10 hr [3]: 3.94; 590 nm absorbance normalized to zero hour (substrate use), 11 hr [3]: 3.74 |
